# Assay results from PMC3010267 (Analytical biochemistry, 2010).
# pKd: −log10 of the molar value.
# Key:
# [1] = molecular target: A2A adenosine receptor (A2AR*, with mutations A54L, T88A, K122A, and V239A) (Homo sapiens, UniProt P29274, A54L/K122A/T88A/V239A); experiment: Biacore kinetic analysis of antagonists binding to capture-coupled A2AR*
# [2] = molecular target: β1 adrenergic receptor (β1AR*, with mutations R68S, Y227A, A282L, F237A, and F338M) (Meleagris gallopavo, UniProt P07700, A282L/F327A/F338M/R68S/Y227A); experiment: biochemical; format: binding, turkey
# [3] = molecular target: β1 adrenergic receptor (β1AR*) (Meleagris gallopavo, UniProt P07700, A282L/F327A/F338M/R68S/Y227A); experiment: biochemical; format: binding, turkey
SMILES,kd [2],pKd [3],other results
CCCn1c(=O)[nH]c2nc(-c3ccc(S(=O)(=O)O)cc3)[nH]c2c1=O [PSB 1115],–,–,"pKd ([1]; A2AR, approximate value given in text for the displacement-regeneration compound): ~6.00"
Nc1nc2c(cnn2CCc2ccccc2)c2nc(-c3ccco3)nn12 [SCH 58261],–,–,kd [1]: 6.6(2) × 10^−2 s^−1; ka ([1]; biacore capture-coupled a2ar*): 1.00(3) × 10^6 M^−1s^−1
C=CCc1ccccc1OCC(O)CNC(C)C (centres unmarked) [alprenolol],2.49(7) × 10^−2 s^−1,–,pKd [2]: 7.72; ka [2]: 1.31(4) × 10^6 M^−1s^−1
CC(C)NCC(O)COc1ccc(CC(N)=O)cc1 (centres unmarked) [atenolol],–,4.31,–
COc1ccc(OC)c(C(O)C(C)NC(C)(C)C)c1 (centres unmarked) [butoxamine],–,5.29,–
CC(C)(C)NCC(O)c1cc(Cl)c(N)c(Cl)c1 (centres unmarked) [clenbuterol],1.33(5) × 10^−1 s^−1,–,pKd [2]: 6.27; ka [2]: 2.47(9) × 10^5 M^−1s^−1
C[C@@H](CO)NC(=O)[C@@H]1C=C2c3cccc4[nH]cc(c34)C[C@H]2N(C)C1 [ergonovine],–,4.08,–
CC(CCc1ccccc1)NCC(O)c1ccc(O)c(C(N)=O)c1 (centres unmarked) [labetalol],–,–,pKd [2]: 7.02
CC[C@@H](CO)NC(=O)[C@@H]1C=C2c3cccc4[nH]cc(c34)C[C@H]2N(C)C1 [methylergonovine],–,4.30,–
OC(CNCC(O)C1CCc2cc(F)ccc2O1)C1CCc2cc(F)ccc2O1 (centres unmarked) [nebivolol],1.50(3) × 10^−2 s^−1,–,–
NCCc1c[nH]c2ccc(O)cc12 [serotonin],–,4.85,–
CC(C)(C)NC[C@H](O)COc1nsnc1N1CCOCC1 [timolol],6.94(8) × 10^−3 s^−1,–,–
